The subject of assay [1] is Methylophilus methylotrophus AS-1 (NCIB 10515; ATCC 53528). The experiment in a line: Sensitivity of the wild type strain to phenylalanine analogs on 121(Fe2)-agar medium. To be noted: for amount at which the wild type strain (strain AS-1) can not grow: usually, under the conditions described in Examples. The class given is cell-based. The text has this:
To be resistant to an phenylalanine analog means that the bacterium can grow in the presence of the phenylalanine analog in the amount at which the wild type strain (for example, strain AS-1) can not grow. The amount varies depending on the kinds of the phenylalanine analog.
To be resistant to L-phenylalanine means that the bacterium can grow in the presence of L-phenylalanine in the amount at which the wild type strain (for example, strain AS-1) can not grow. The amount is usually 8 g/l under the conditions described in Examples mentioned below.
To be resistant to cinnamic acid means that the bacterium can grow in the presence of cinnamic acid in the amount at which the wild type strain (for example, strain AS-1) can not grow. The amount is usually 50 mg/l under the conditions described in Examples mentioned below.
The 10^8 c.f.u./ml of M. methylotrophus bacteria were plated and grown at +30° C. for 3 days. […] The several crystals of N-methyl-N′-nitro-N-nitrosoguanidin (hereinafter abbreviated to NG) mutagen was placed in the middle of the plate. After 4-5 days at 30° C., the plates were analyzed.

Assay [2] deals with M. methylotrophus pFp^R mutant No. 227. Put plainly: Growth of pFp^R mutant on agarized 121-medium with L-phenylalanine. The class given is cell-based, Methylophilus methylotrophus. To be noted: added into the agarized 121-medium.
Assay [3] concerns Methylophilus methylotrophus pFp^R phe^R mutant strain No. 227-16. In kind it is cell-based. The text has this: The new mutants which were resistant to 1 g/L of meta-fluorophenylalanine (hereinafter abbreviated to mFp^R) were isolated from the strain No. 227-16 after NG-mutagenesis as it was described above.

Each structure is given as a SMILES string.

On to `NC(Cc1ccc(F)cc1)C(=O)O` (racemic) [DL-p-fluorophenylalanine], for which, in assay [1] (121(Fe2)-agar medium, 10^8 c.f.u./ml plated, +30° C., 3 days), the “concentration that totally inhibited the growth of the bacteria lawn” value worked out at 1 mg/mL. In assay [1], the “amount at which the wild type strain (strain AS-1) can not grow” value (“amount … (strain AS-1) can not grow” for short) amounted to 2 g/L.

For the compound `N[C@@H](Cc1ccccc1)C(=O)O` [L-phenylalanine], in assay [2], the “concentration that totally inhibited the growth” value was determined as 0.1 M. Moreover, the “concentration to which the strain was resistant” value in assay [3] (strain No. 227-16) is listed as 0.05 M. Also, in assay [1], the “amount … (strain AS-1) can not grow” value was determined as 8 g/L.

Consider `O=C(O)C=Cc1ccccc1` [cinnamic acid], for which the “amount … (strain AS-1) can not grow” value in assay [1] turned out to be 0.05 g/L.

Turning to `N[C@@H](Cc1cccc(F)c1)C(=O)O` [m-fluorophenylalanine], the “growth of the strain in the presence of the analog” value in assay [3] (strain No. 227-16, 1 g/l of the analog) is “only a slight growth”. For the same compound, in assay [1], the “amount … (strain AS-1) can not grow” value was 1 g/L.

The record behind these values is patent US6350596B2, “Method for producing L-phenylalanine” (Ajinomoto Co., Inc., priority 2000, dated 2002).
